Legend:
Carbonic anhydrase 2 [1] = target: T1, Carbonic anhydrase 2 (Homo sapiens, UniProt P00918); experiment: Inhibition of esterase-activity of human erythrocytes CA2 by spectrophotometry
Carbonic anhydrase 2 [2] = target: T1, Carbonic anhydrase 2; experiment: Inhibition of human erythrocytes CA2 by Lineweaver-Burke analysis
Carbonic anhydrase 2 [3] = target: T1, Carbonic anhydrase 2; experiment: Inhibition of hydratase-activity of human erythrocytes CA2 by CO2-hydration method
Carbonic anhydrase 1 [4] = target: T2, Carbonic anhydrase 1 (Homo sapiens, UniProt P00915); experiment: Inhibition of hydratase-activity of CA1 from human erythrocytes by CO2-hydration method
Carbonic anhydrase 1 [5] = target: T2, Carbonic anhydrase 1; experiment: Inhibition of esterase-activity of CA1 from human erythrocytes by spectrophotometry
Carbonic anhydrase 1 [6] = target: T2, Carbonic anhydrase 1; experiment: Inhibition of CA1 from human erythrocytes by Lineweaver-Burke analysis

T2 sequence (P00915 whole entry): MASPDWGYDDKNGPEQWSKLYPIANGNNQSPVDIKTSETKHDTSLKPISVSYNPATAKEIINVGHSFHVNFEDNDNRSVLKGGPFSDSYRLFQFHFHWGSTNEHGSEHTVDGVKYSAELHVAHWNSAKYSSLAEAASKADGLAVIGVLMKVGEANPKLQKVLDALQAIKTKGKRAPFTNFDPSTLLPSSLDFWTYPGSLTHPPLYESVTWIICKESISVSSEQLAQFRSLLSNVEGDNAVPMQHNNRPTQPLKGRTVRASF

Structure (SMILES) | IC50 (Carbonic anhydrase 2 [1]; read-out: IC50) [µM] | IC50 (Carbonic anhydrase 2 [2]; read-out: IC50) [µM] | IC50 (Carbonic anhydrase 2 [3]; read-out: IC50) [µM] | IC50 (Carbonic anhydrase 1 [4]; read-out: IC50) [µM] | IC50 (Carbonic anhydrase 1 [5]; read-out: IC50) [µM] | IC50 (Carbonic anhydrase 1 [6]; read-out: IC50) [µM] | IC50 (Carbonic anhydrase 2 [1]) | IC50 (Carbonic anhydrase 2 [2]) | IC50 (Carbonic anhydrase 2 [3]) | IC50 (Carbonic anhydrase 1 [4]) | IC50 (Carbonic anhydrase 1 [5]) | IC50 (Carbonic anhydrase 1 [6])
NS(=O)(=O)c1cc(C(=O)O)c(Cl)cc1Cl | 18 | 22 | 0.38 | 0.43 | 3.2 | 7.7 |  |  |  |  |  | 
NCc1ccccn1 |  |  |  |  |  |  | Not Active | Not Active | Not Active | Not Active | Not Active | Not Active
NCc1ccccn1.NS(=O)(=O)c1cc(C(=O)O)c(Cl)cc1Cl | 0.29 | 0.22 | 0.3 | 0.26 | 0.32 | 0.25 |  |  |  |  |  | 

— ChEMBL document CHEMBL1157726, “Synthesis, characterization and antiglaucoma activity of a novel proton transfer compound and a mixed-ligand Zn(II) complex” (Bioorg Med Chem, 2010)
